Data on 19 compounds can be found in US8129361B2, “Amine compound and pharmaceutical use thereof” (Mitsubishi Tanabe Pharma Corporation, priority 2007, dated 2012).

Common to all, as to type: in vivo
For data set [1], the system named is peripheral blood lymphocyte number. The data set can be described thus: Peripheral blood lymphocyte number decreasing action in rat. Conditions: male F344 rats, oral, 24 hr after administration, read-out: ED50 (dose necessary for reducing the lymphocyte count of the vehicle group (100%) by 50%).
Data set [2] has the same test system. The data set can be described thus: Peripheral blood lymphocyte number decreasing action in mouse. The note with it: ip, male BALB/cAnNCrj mice, intraperitoneal, 24 hr after administration, read-out: ED50 (dose necessary for reducing the lymphocyte count of the vehicle group (100%) by 50%).
Data set [3] relates to heart rate in rat under anesthesia. The data set can be described thus: Action on heart rate in rat under anesthesia (intravenous administration). The note with it: anesthetized male Sprague-Dawley (IGS) rats, intravenous over 30 sec, up to the dose of 0.03 mg/kg body weight, 1-15 minutes after administration. How it is done:
Action on Heart Rate in Rat Under Anesthesia
Male Sprague-Dawley (IGS) rats were anesthetized by intraperitoneal administration of Nembutal (manufactured by Dainippon Sumitomo Pharma Co., Ltd.), and fixed at the dorsal position. Electrodes were mounted on four limbs, and the electrocardiogram was measured according to Standard Limb Lead II using an electrocardiogram amplifier (AC-601G, manufactured by NIHON KOHDEN CORPORATION). With the electrocardiographic wave as a trigger, the heart rate was measured with an instantaneous heart rate unit (AT-601G, manufactured by NIHON KOHDEN CORPORATION). The test compound was dissolved in 20% cyclodextrin (manufactured by Nihon Shokuhin Kako Co., Ltd.) and intravenously administered at a dose of 0.001-10 mg/kg body weight over 30 sec. The heart rate was measured before administration, and 1, 2, 3, 4, 5, 10 and 15 minutes after the administration.

In the case of `CC[C@](N)(CO)CCc1ccc(OCCCc2ccc(Cl)c(Cl)c2)c(C(F)(F)F)c1.Cl` [Compound 206-3, (R)-2-amino-4-{4-[3-(3,4-dichlorophenyl)propoxy]-3-trifluoromethylphenyl}-2-ethylbutanol hydrochloride], the ED50 (usually the dose that gives a 50% effect, or the effect in half of the subjects) in data set [1] was 0.05 mg/kg; in data set [2], 0.02 mg/kg.

For the compound `NC(CO)(CCc1ccc(OCCCc2ccc(OC(F)(F)F)cc2)c(C(F)(F)F)c1)COP(=O)(O)O` (stereo not drawn) [Compound 153-2, 2-amino-2-(phosphoryloxymethyl)-4-{4-[3-(4-trifluoromethoxyphenyl)propoxy]-3-trifluoromethylphenyl}butanol], the “Effect on heart rate as compared to the value before administration” value in data set [3] is on record as “did not reduce the heart rate of the rat by 20% or more”. `Cl.NC(CO)(CO)CCc1ccc(OC/C=C/c2cccc(Cl)c2)c(C(F)(F)F)c1` [Compound 89-2, 2-amino-2-(2-{4-[3-(3-chlorophenyl)allyloxy]-3-trifluoromethylphenyl}ethyl)propane-1,3-diol hydrochloride]: the ED50 came out at 0.06 mg/kg in data set [1] and 0.04 mg/kg in data set [2]. For `Cl.NC(CO)(CO)CCc1ccc(OCCCc2ccc(C(F)(F)F)c(F)c2)c(C(F)(F)F)c1` [Compound 68-4, 2-amino-2-(2-{4-[3-(3-fluoro-4-trifluoromethylphenyl)propoxy]-3-trifluoromethylphenyl}ethyl)propane-1,3-diol hydrochloride] the same measures were 0.09 mg/kg and 0.04 mg/kg. On to `NC(/C=C/c1ccc(OCCCc2ccccc2)c(C(F)(F)F)c1)(CO)COP(=O)(O)O` (stereo not drawn) [compound 192-2, (E)-2-amino-4-[4-(3-phenylpropoxy)-3-trifluoromethylphenyl]-2-(phosphoryloxymethyl)-3-butenol], for which the “Effect on heart rate as compared to the value before administration” value in data set [3] is “did not reduce the heart rate of the rat by 20% or more”.

For `CCC(N)(CCc1ccc(OCCCc2ccc(OC(F)(F)F)cc2)c(C(F)(F)F)c1)COP(=O)(O)O` (stereo not drawn) [Compound 221-2, phosphoric acid mono(2-amino-2-ethyl-4-{4-[3-(4-trifluoromethoxyphenyl)propoxy]-3-trifluoromethylphenyl}butyl)ester], the “Effect on heart rate as compared to the value before administration” value in data set [3] is on record as “did not reduce the heart rate of the rat by 20% or more”.

As to `Cl.NC(/C=C/c1ccc(OCCCc2ccccc2F)c(C(F)(F)F)c1)(CO)CO` [Compound 101-2, (E)-2-amino-2-(2-{4-[3-(2-fluorophenyl)propoxy]-3-trifluoromethylphenyl}vinyl)propane-1,3-diol hydrochloride], the ED50 in data set [2] was found to be 0.1 mg/kg.

In the case of `Cl.NC(CO)(CO)CCc1ccc(OCCCc2cccc(OC(F)(F)F)c2)c(C(F)(F)F)c1` [Compound 58-5, 2-amino-2-(2-{4-[3-(3-trifluoromethoxyphenyl)propoxy]-3-trifluoromethylphenyl}ethyl)propane-1,3-diol hydrochloride], the ED50 in data set [1] amounted to 0.07 mg/kg; in data set [2] it was 0.06 mg/kg.

As to `CCC(N)(CCc1ccc(OCCCc2cccc(OC(F)(F)F)c2)c(C(F)(F)F)c1)COP(=O)(O)O` (stereo not drawn) [Compound 223-2, phosphoric acid mono(2-amino-2-ethyl-4-{4-[3-(3-trifluoromethoxyphenyl)propoxy]-3-trifluoromethylphenyl}butyl)ester], the “Effect on heart rate as compared to the value before administration” value in data set [3] is reported as “did not reduce the heart rate of the rat by 20% or more”. With `CC[C@](N)(CO)CCc1ccc(OCCCc2ccc(C(F)(F)F)cc2)c(C(F)(F)F)c1.Cl` [Compound 32-1, (R)-2-amino-2-ethyl-4-{3-trifluoromethyl-4-[3-(4-trifluoromethylphenyl)propoxy]phenyl}butanol hydrochloride], the ED50 in data set [1] turned out to be 0.02 mg/kg.

Take `Cl.NC(/C=C/c1ccc(OCCCc2ccccc2)c(C(F)(F)F)c1)(CO)CO` [Compound 100-2, (E)-2-amino-2-{2-[4-(3-phenylpropoxy)-3-trifluoromethylphenyl]vinyl}propane-1,3-diol hydrochloride]: the ED50 in data set [1] and in data set [2] was 0.07 mg/kg in each case.

Regarding `C[C@](N)(CO)CCc1ccc(OCCCc2ccc(C(F)(F)F)cc2)c(C(F)(F)F)c1.Cl` [Compound 29-1, (R)-2-amino-2-methyl-4-{3-trifluoromethyl-4-[3-(4-trifluoromethylphenyl)propoxy]phenyl}butanol hydrochloride], the ED50 in data set [1] was determined as 0.03 mg/kg. With `C[C@@](N)(CCc1ccc(OCCCc2ccc(C(F)(F)F)cc2)c(C(F)(F)F)c1)COP(=O)(O)O` [Compound 132-2, (R)-phosphoric acid mono(2-amino-2-methyl-4-{3-trifluoromethyl-4-[3-(4-trifluoromethylphenyl)propoxy]phenyl}butyl)ester], the “Effect on heart rate as compared to the value before administration” value in data set [3] is recorded as “did not reduce the heart rate of the rat by 20% or more”.

On to `CC(N)(CCc1ccc(OCCCc2ccc(Cl)c(Cl)c2)c(C(F)(F)F)c1)COP(=O)(O)O` (stereo not drawn) [Compound 209-2, phosphoric acid mono(2-amino-4-{4-[3-(3,4-dichlorophenyl)propoxy]-3-trifluoromethylphenyl}-2-methylbutyl)ester], for which the “Effect on heart rate as compared to the value before administration” value in data set [3] is listed as “did not reduce the heart rate of the rat by 20% or more”. The same measure, in the same setting: then `NC(CO)(CCc1ccc(OCCCc2cccc(OC(F)(F)F)c2)c(C(F)(F)F)c1)COP(=O)(O)O` (stereo not drawn) [Compound 158-2, 2-amino-2-(phosphoryloxymethyl)-4-{4-[3-(3-trifluoromethoxyphenyl)propoxy]-3-trifluoromethylphenyl}butanol], with “did not reduce the heart rate of the rat by 20% or more”. As to `CC[C@](N)(CO)CCc1ccc(OCCCc2ccc(OC(F)(F)F)cc2)c(C(F)(F)F)c1.Cl` [Compound 218-2, (R)-2-amino-2-ethyl-4-{4-[3-(4-trifluoromethoxyphenyl)propoxy]-3-trifluoromethylphenyl}butanol hydrochloride], the 50% effective dose (ED50) in data set [1] came out at 0.03 mg/kg. Same read-out and setting: the result for `CC[C@](N)(CO)CCc1ccc(OCCCc2cccc(OC(F)(F)F)c2)c(C(F)(F)F)c1.Cl` [Compound 220-2, (R)-2-amino-2-ethyl-4-{4-[3-(3-trifluoromethoxyphenyl)propoxy]-3-trifluoromethylphenyl}butanol hydrochloride] reads 0.03 mg/kg. For `NC(/C=C/c1ccc(OCCCc2ccccc2F)c(C(F)(F)F)c1)(CO)COP(=O)(O)O` (stereo not drawn) [compound 193-2, (E)-2-amino-4-{4-[3-(2-fluorophenyl)propoxy]-3-trifluoromethylphenyl}-2-(phosphoryloxymethyl)-3-butenol], the “Effect on heart rate as compared to the value before administration” value in data set [3] was “did not reduce the heart rate of the rat by 20% or more”. Same read-out and setting: then `NC(CO)(CCc1ccc(OCCCc2ccc(C(F)(F)F)c(F)c2)c(C(F)(F)F)c1)COP(=O)(O)O` (stereo not drawn) [Compound 168-2, 2-amino-4-{4-[3-(3-fluoro-4-trifluoromethylphenyl)propoxy]-3-trifluoromethylphenyl}-2-(phosphoryloxymethyl)butanol], with “did not reduce the heart rate of the rat by 20% or more”.
